{"source": "patent US20230150974A1", "about": "(Foghorn Therapeutics Inc., priority 2020, published 2023)", "key": {"HiBiT-BRM": {"biological_target": "T1, HiBiT-BRM (Homo sapiens, UniProt P51531)", "T1 construct": "expressed in transfected cells", "T1 sequence (P51531 whole entry)": "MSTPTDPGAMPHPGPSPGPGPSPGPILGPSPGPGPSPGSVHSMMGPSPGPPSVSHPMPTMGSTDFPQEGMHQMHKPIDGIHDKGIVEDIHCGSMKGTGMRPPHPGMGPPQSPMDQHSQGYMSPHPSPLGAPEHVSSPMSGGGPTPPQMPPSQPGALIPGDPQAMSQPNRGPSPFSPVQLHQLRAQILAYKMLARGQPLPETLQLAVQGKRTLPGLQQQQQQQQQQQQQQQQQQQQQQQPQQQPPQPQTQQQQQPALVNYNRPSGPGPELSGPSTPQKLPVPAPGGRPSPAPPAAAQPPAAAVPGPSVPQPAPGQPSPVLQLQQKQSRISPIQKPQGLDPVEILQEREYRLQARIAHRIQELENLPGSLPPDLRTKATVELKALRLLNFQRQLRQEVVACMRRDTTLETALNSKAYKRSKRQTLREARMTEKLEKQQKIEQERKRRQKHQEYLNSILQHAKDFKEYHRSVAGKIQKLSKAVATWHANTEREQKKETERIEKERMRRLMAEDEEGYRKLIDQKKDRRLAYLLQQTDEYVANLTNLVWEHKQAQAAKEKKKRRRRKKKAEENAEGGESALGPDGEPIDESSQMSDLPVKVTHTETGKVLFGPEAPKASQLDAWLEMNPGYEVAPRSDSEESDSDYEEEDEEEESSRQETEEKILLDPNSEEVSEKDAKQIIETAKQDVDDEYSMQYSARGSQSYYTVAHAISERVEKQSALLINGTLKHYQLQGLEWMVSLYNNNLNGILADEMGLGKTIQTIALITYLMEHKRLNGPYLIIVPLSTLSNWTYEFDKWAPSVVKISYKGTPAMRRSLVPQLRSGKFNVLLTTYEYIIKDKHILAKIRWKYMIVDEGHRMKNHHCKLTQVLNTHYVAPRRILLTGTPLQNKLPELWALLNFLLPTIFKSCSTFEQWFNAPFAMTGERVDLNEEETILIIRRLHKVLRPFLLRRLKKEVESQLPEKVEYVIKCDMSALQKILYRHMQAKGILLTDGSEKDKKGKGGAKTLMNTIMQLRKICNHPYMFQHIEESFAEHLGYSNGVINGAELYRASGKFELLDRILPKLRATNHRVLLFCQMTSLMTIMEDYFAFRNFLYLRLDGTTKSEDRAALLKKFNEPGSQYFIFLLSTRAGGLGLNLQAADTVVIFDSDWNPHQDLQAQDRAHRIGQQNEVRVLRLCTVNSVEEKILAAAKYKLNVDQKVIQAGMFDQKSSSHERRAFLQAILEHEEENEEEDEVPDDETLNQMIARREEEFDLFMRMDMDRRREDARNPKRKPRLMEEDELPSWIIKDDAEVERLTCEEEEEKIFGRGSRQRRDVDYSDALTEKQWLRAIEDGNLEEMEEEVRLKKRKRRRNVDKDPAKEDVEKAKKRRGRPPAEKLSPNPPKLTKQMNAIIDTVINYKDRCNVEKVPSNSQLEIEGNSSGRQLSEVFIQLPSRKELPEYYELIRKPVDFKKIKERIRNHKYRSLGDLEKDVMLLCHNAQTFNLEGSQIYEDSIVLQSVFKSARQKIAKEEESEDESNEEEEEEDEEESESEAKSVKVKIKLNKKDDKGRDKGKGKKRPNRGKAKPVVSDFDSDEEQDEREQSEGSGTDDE", "assay": "HiBiT-BRM cell-based degradation assay (Nano-Glo HiBiT Lytic Detection)", "settings": "HeLa cells expressing HiBiT-BRM, 24 h; for DC50: read-out: BRM HiBit Degradation IC50", "summary_of_the_method": "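Luminescence from HiBiT–LgBiT complementation in lysates of a stable HiBiT-BRM HeLa line measured after 24 h compound exposure. Degradation expressed as percent relative to DMSO-treated cells and cells given 2 μM of a known BRM/BRG1 degrader.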"}, "HiBit-BRG1": {"biological_target": "T2, HiBit-BRG1 (Homo sapiens, UniProt P51532)", "T2 construct": "expressed in transfected cells", "T2 sequence (P51532 whole entry)": "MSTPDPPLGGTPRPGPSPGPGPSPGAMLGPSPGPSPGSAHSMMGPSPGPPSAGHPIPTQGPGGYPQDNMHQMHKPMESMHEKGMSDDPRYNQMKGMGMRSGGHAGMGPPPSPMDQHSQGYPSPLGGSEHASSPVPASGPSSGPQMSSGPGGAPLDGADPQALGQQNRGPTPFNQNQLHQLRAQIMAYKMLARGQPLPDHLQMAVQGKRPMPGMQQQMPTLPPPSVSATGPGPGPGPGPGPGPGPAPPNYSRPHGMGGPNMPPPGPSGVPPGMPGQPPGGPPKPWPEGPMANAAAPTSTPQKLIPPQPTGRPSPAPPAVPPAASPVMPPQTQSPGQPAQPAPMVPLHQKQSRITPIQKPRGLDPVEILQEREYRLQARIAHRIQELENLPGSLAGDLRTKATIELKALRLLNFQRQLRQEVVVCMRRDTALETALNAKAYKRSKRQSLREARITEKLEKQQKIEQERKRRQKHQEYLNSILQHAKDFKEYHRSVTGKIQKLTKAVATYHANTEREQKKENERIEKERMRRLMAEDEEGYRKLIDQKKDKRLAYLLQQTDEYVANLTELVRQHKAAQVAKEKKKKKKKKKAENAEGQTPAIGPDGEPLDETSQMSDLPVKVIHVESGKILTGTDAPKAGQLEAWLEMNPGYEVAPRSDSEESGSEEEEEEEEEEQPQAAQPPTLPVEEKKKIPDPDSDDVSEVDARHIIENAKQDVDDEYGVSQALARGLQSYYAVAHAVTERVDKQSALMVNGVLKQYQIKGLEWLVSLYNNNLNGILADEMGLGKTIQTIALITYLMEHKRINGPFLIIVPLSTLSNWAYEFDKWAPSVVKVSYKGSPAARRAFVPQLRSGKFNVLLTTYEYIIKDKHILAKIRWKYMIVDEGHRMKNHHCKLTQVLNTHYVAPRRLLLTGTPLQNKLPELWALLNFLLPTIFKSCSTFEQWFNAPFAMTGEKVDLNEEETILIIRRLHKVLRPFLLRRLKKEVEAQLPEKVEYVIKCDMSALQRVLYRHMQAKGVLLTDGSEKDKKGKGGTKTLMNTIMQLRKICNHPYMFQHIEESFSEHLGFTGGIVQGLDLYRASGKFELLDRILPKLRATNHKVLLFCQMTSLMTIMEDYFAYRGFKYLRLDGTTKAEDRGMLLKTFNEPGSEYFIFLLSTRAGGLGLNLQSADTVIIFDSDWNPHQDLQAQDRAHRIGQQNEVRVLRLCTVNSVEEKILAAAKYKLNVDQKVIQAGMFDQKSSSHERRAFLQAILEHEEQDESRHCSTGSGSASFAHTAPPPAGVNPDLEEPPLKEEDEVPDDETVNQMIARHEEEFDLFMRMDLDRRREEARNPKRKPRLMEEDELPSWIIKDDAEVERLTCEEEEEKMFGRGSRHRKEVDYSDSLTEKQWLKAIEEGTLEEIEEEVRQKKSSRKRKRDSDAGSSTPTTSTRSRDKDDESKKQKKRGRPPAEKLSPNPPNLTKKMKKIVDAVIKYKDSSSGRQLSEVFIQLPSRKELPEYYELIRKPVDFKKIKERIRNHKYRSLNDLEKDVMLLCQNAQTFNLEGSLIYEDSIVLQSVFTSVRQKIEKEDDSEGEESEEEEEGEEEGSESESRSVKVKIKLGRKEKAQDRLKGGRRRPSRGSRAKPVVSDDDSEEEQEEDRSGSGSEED", "assay": "HiBit-BRG1 cell-based degradation assay (Nano-Glo HiBiT Lytic Detection)", "settings": "HeLa cells expressing HiBit-BRG1 and LgBit, 24 h; for DC50: read-out: BRG1 HiBit Degradation IC50; for Dmax: read-out: BRG1 HiBit Degradation Maximum (%)", "summary_of_the_method": "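Stable HeLa line co-expressing HiBit-BRG1 and LgBit, 5000 cells/well, treated 24 h in a tissue culture incubator. Lysed with Nano-Glo HiBiT lytic reagent, luminescence read. % degradation normalized to DMSO (high control) and 2 μM reference BRM/BRG1 degrader (low control).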"}}, "data": [{"smiles": "Cc1ncsc1-c1ccc([C@H](C)NC(=O)[C@@H]2C[C@@H](O)CN2C(=O)[C@@H](c2cc(OCCN3CC4(C3)CN(C(=O)c3ccc(CCOc5cc(-c6ccccc6O)nnc5N)cc3)C4)no2)C(C)C)cc1", "note": "[Compound 208, (2S,4R)-1-[(2R)-2-[3-(2-[6-[4-(2-[[3-amino-6-(2-hydroxyphenyl)pyridazin-4-yl]oxy]ethyl)benzoyl]-2,6-diazaspiro[3.3]heptan-2-yl]ethoxy)-1,2-oxazol-5-yl]-3-methylbutanoyl]-4-hydroxy-N-[(1S)-1-[4-(4-methyl-1,3-thiazol-5-yl)phenyl]ethyl]pyrrolidine-2-carboxamide]", "values": [{"measurement": "BRM HiBit Degradation Maximum (%)", "setting": "HiBiT-BRM", "result": "A (“A” indicates maximum degradation ≥75%)"}, {"measurement": "DC50", "setting": "HiBiT-BRM", "result": "> 10", "unit": "nM"}, {"measurement": "DC50", "setting": "HiBit-BRG1", "result": "> 100", "unit": "nM"}, {"measurement": "Dmax", "setting": "HiBit-BRG1", "result": "> 75", "unit": "%"}]}, {"smiles": "Cc1ncsc1-c1ccc([C@H](C)NC(=O)[C@@H]2C[C@@H](O)CN2C(=O)[C@@H](c2cc(OCCN3CCC4(CC3)CCN(C(=O)c3ccc(CCOc5cc(-c6ccccc6O)nnc5N)cc3)CC4)no2)C(C)C)cc1", "note": "[Compound 209, (2S,4R)-1-[(2R)-2-[3-(2-[9-[4-(2-[[3-amino-6-(2-hydroxyphenyl)pyridazin-4-yl]oxy]ethyl)benzoyl]-3,9-diazaspiro[5.5]undecan-3-yl]ethoxy)-1,2-oxazol-5-yl]-3-methylbutanoyl]-4-hydroxy-N-[(1S)-1-[4-(4-methyl-1,3-thiazol-5-yl)phenyl]ethyl]pyrrolidine-2-carboxamide]", "values": [{"measurement": "BRM HiBit Degradation Maximum (%)", "setting": "HiBiT-BRM", "result": "A (“A” indicates maximum degradation ≥75%)"}, {"measurement": "DC50", "setting": "HiBiT-BRM", "result": "> 10", "unit": "nM"}, {"measurement": "DC50", "setting": "HiBit-BRG1", "result": "> 100", "unit": "nM"}, {"measurement": "Dmax", "setting": "HiBit-BRG1", "result": "> 75", "unit": "%"}]}, {"smiles": "Cc1ncsc1-c1ccc([C@H](C)NC(=O)[C@@H]2C[C@@H](O)CN2C(=O)[C@@H](c2cc(OCCN3CCC(OC4CCN(C(=O)c5ccc(CCOc6cc(-c7ccccc7O)nnc6N)cc5)CC4)CC3)no2)C(C)C)cc1", "note": "[Compound 210, (2S,4R)-1-((R)-2-(3-(2-(4-((1-(4-(2-((3-amino-6-(2-hydroxyphenyl)pyridazin-4-yl)oxy)ethyl)benzoyl)piperidin-4-yl)oxy)piperidin-1-yl)ethoxy)isoxazol-5-yl)-3-methylbutanoyl)-4-hydroxy-N-((S)-1-(4-(4-methylthiazol-5-yl)phenyl)ethyl)pyrrolidine-2-carboxamide]", "values": [{"measurement": "BRM HiBit Degradation Maximum (%)", "setting": "HiBiT-BRM", "result": "A (“A” indicates maximum degradation ≥75%)"}, {"measurement": "DC50", "setting": "HiBiT-BRM", "result": "< 10", "unit": "nM"}, {"measurement": "DC50", "setting": "HiBit-BRG1", "result": "> 100", "unit": "nM"}, {"measurement": "Dmax", "setting": "HiBit-BRG1", "result": "> 50", "unit": "%"}]}, {"smiles": "Cc1ncsc1-c1ccc([C@H](C)NC(=O)[C@@H]2C[C@@H](O)CN2C(=O)[C@@H](c2cc(OCCN3CC(C4CCN(C(=O)c5ccc(CCOc6cc(-c7ccccc7O)nnc6N)cc5)CC4)C3)no2)C(C)C)cc1", "note": "[Compound 211, (2S,4R)-1-[(2R)-2-[3-[2-(3-[1-[4-(2-[[3-amino-6-(2-hydroxyphenyl)pyridazin-4-yl]oxy]ethyl)benzoyl]piperidin-4-yl]azetidin-1-yl)ethoxy]-1,2-oxazol-5-yl]-3-methylbutanoyl]-4-hydroxy-N-[(1S)-1-[4-(4-methyl-1,3-thiazol-5-yl)phenyl]ethyl]pyrrolidine-2-carboxamide]", "values": [{"measurement": "BRM HiBit Degradation Maximum (%)", "setting": "HiBiT-BRM", "result": "A (“A” indicates maximum degradation ≥75%)"}, {"measurement": "DC50", "setting": "HiBiT-BRM", "result": "> 10", "unit": "nM"}, {"measurement": "DC50", "setting": "HiBit-BRG1", "result": "> 1000", "unit": "nM"}, {"measurement": "Dmax", "setting": "HiBit-BRG1", "result": "> 50", "unit": "%"}]}, {"smiles": "Cc1ncsc1-c1ccc([C@H](C)NC(=O)[C@@H]2C[C@@H](O)CN2C(=O)[C@@H](c2cc(OCCNCCCCCCCCCCC(=O)NCc3ccc(CCOc4cc(-c5ccccc5O)nnc4N)cc3)no2)C(C)C)cc1", "note": "[Compound 212, (2S,4R)-1-[(2R)-2-[3-(2-[[10-([[4-(2-[[3-amino-6-(2-hydroxyphenyl)pyridazin-4-yl]oxy]ethyl)phenyl]methyl]carbamoyl)decyl]amino]ethoxy)-1,2-oxazol-5-yl]-3-methylbutanoyl]-4-hydroxy-N-[(1S)-1-[4-(4-methyl-1,3-thiazol-5-yl)phenyl]ethyl]pyrrolidine-2-carboxamide]", "values": [{"measurement": "BRM HiBit Degradation Maximum (%)", "setting": "HiBiT-BRM", "result": "A (“A” indicates maximum degradation ≥75%)"}, {"measurement": "DC50", "setting": "HiBiT-BRM", "result": "> 10", "unit": "nM"}, {"measurement": "DC50", "setting": "HiBit-BRG1", "result": "> 1000", "unit": "nM"}, {"measurement": "Dmax", "setting": "HiBit-BRG1", "result": "< 50", "unit": "%"}]}, {"smiles": "Cc1ncsc1-c1ccc([C@H](C)NC(=O)[C@@H]2C[C@@H](O)CN2C(=O)[C@@H](c2cc(OCCN3CC4=C(C3)CN(C(=O)c3ccc(CCOc5cc(-c6ccccc6O)nnc5N)cc3)C4)no2)C(C)C)cc1", "note": "[Compound 213, (2S,4R)-1-((R)-2-(3-(2-(5-(4-(2-((3-amino-6-(2-hydroxyphenyl)pyridazin-4-yl)oxy)ethyl)benzoyl)-3,4,5,6-tetrahydropyrrolo[3,4-c]pyrrol-2(1H)-yl)ethoxy)isoxazol-5-yl)-3-methylbutanoyl)-4-hydroxy-N-((S)-1-(4-(4-methylthiazol-5-yl)phenyl)ethyl)pyrrolidine-2-carboxamide]", "values": [{"measurement": "BRM HiBit Degradation Maximum (%)", "setting": "HiBiT-BRM", "result": "A (“A” indicates maximum degradation ≥75%)"}, {"measurement": "DC50", "setting": "HiBiT-BRM", "result": "> 10", "unit": "nM"}, {"measurement": "DC50", "setting": "HiBit-BRG1", "result": "> 100", "unit": "nM"}, {"measurement": "Dmax", "setting": "HiBit-BRG1", "result": "> 75", "unit": "%"}]}, {"smiles": "Cc1ncsc1-c1ccc([C@H](C)NC(=O)[C@@H]2C[C@@H](O)CN2C(=O)[C@@H](NC(=O)CCCCCCCCCCCCCCC(=O)NCc2ccc(CCOc3cc(-c4ccccc4O)nnc3N)cc2)C(C)(C)C)cc1", "note": "[Compound 214, N1-(4-(2-((3-amino-6-(2-hydroxyphenyl)pyridazin-4-yl)oxy)ethyl)benzyl)-N16-((S)-1-((2S,4R)-4-hydroxy-2-(((S)-1-(4-(4-methylthiazol-5-yl)phenyl)ethyl)carbamoyl)pyrrolidin-1-yl)-3,3-dimethyl-1-oxobutan-2-yl)hexadecanediamide]", "values": [{"measurement": "BRM HiBit Degradation Maximum (%)", "setting": "HiBiT-BRM", "result": "A (“A” indicates maximum degradation ≥75%)"}, {"measurement": "DC50", "setting": "HiBiT-BRM", "result": "> 10", "unit": "nM"}, {"measurement": "DC50", "setting": "HiBit-BRG1", "result": "> 1000", "unit": "nM"}, {"measurement": "Dmax", "setting": "HiBit-BRG1", "result": "< 50", "unit": "%"}]}, {"smiles": "Cc1ncsc1-c1ccc([C@H](C)NC(=O)[C@@H]2C[C@@H](O)CN2C(=O)[C@@H](NC(=O)CCCCCCCCCCCCCCC(=O)N(C)Cc2ccc(CCOc3cc(-c4ccccc4O)nnc3N)cc2)C(C)(C)C)cc1", "note": "[Compound 215, N1-(4-(2-((3-amino-6-(2-hydroxyphenyl)pyridazin-4-yl)oxy)ethyl)benzyl)-N16-((S)-1-((2S,4R)-4-hydroxy-2-(((S)-1-(4-(4-methylthiazol-5-yl)phenyl)ethyl)carbamoyl)pyrrolidin-1-yl)-3,3-dimethyl-1-oxobutan-2-yl)-N1-methylhexadecanediamide]", "values": [{"measurement": "BRM HiBit Degradation Maximum (%)", "setting": "HiBiT-BRM", "result": "A (“A” indicates maximum degradation ≥75%)"}, {"measurement": "DC50", "setting": "HiBiT-BRM", "result": "> 10", "unit": "nM"}, {"measurement": "DC50", "setting": "HiBit-BRG1", "result": "> 1000", "unit": "nM"}, {"measurement": "Dmax", "setting": "HiBit-BRG1", "result": "< 50", "unit": "%"}]}, {"smiles": "Cc1ncsc1-c1ccc(CNC(=O)[C@@H]2C[C@@H](O)CN2C(=O)[C@@H](NC(=O)CCN2[C@@H]3CC[C@H]2CN(C(=O)c2ccc(CCOc4cc(-c5ccccc5O)nnc4N)cc2)C3)C(C)(C)C)cc1", "note": "[Compound 216, (2S,4R)-1-((2S)-2-(3-(3-(4-(2-((3-amino-6-(2-hydroxyphenyl)pyridazin-4-yl)oxy)ethyl)benzoyl)-3,8-diazabicyclo[3.2.1]octan-8-yl)propanamido)-3,3-dimethylbutanoyl)-4-hydroxy-N-(4-(4-methylthiazol-5-yl)benzyl)pyrrolidine-2-carboxamide]", "values": [{"measurement": "BRM HiBit Degradation Maximum (%)", "setting": "HiBiT-BRM", "result": "C (“C” indicates maximum degradation <50%)"}, {"measurement": "DC50", "setting": "HiBiT-BRM", "result": "> 1000", "unit": "nM"}, {"measurement": "DC50", "setting": "HiBit-BRG1", "result": "> 1000", "unit": "nM"}, {"measurement": "Dmax", "setting": "HiBit-BRG1", "result": "< 50", "unit": "%"}]}, {"smiles": "Cc1ncsc1-c1ccc([C@H](C)NC(=O)[C@@H]2C[C@@H](O)CN2C(=O)[C@@H](c2cc(OCCN3CCN(c4cc(-c5ccccc5O)nnc4N)CC3)no2)C(C)C)cc1", "note": "[Compound 217, (2S,4R)-1-((R)-2-(3-(2-(4-(3-amino-6-(2-hydroxyphenyl)pyridazin-4-yl)piperazin-1-yl)ethoxy)isoxazol-5-yl)-3-methylbutanoyl)-4-hydroxy-N-((S)-1-(4-(4-methylthiazol-5-yl)phenyl)ethyl)pyrrolidine-2-carboxamide]", "values": [{"measurement": "BRM HiBit Degradation Maximum (%)", "setting": "HiBiT-BRM", "result": "A (“A” indicates maximum degradation ≥75%)"}, {"measurement": "DC50", "setting": "HiBiT-BRM", "result": "> 10", "unit": "nM"}, {"measurement": "DC50", "setting": "HiBit-BRG1", "result": "> 1000", "unit": "nM"}, {"measurement": "Dmax", "setting": "HiBit-BRG1", "result": "< 50", "unit": "%"}]}, {"smiles": "Cc1ncsc1-c1ccc([C@H](C)NC(=O)[C@@H]2C[C@@H](O)CN2C(=O)[C@@H](c2cc(OCCNCCCCC(=O)NCc3ccc(CCOc4cc(-c5ccccc5O)nnc4N)cc3)no2)C(C)C)cc1", "note": "[Compound 218, (2S,4R)-1-((R)-2-(3-(2-((5-((4-(2-((3-amino-6-(2-hydroxyphenyl)pyridazin-4-yl)oxy)ethyl)benzyl)amino)-5-oxopentyl)amino)ethoxy)isoxazol-5-yl)-3-methylbutanoyl)-4-hydroxy-N-((S)-1-(4-(4-methylthiazol-5-yl)phenyl)ethyl)pyrrolidine-2-carboxamide]", "values": [{"measurement": "BRM HiBit Degradation Maximum (%)", "setting": "HiBiT-BRM", "result": "B (“B” indicates maximum degradation ≥50%)"}, {"measurement": "DC50", "setting": "HiBiT-BRM", "result": "> 100", "unit": "nM"}, {"measurement": "DC50", "setting": "HiBit-BRG1", "result": "> 1000", "unit": "nM"}, {"measurement": "Dmax", "setting": "HiBit-BRG1", "result": "< 50", "unit": "%"}]}, {"smiles": "Cc1ncsc1-c1ccc(CNC(=O)[C@@H]2C[C@@H](O)CN2C(=O)[C@@H](NC(=O)CCN2CC3=C(C2)CN(C(=O)c2ccc(CCOc4cc(-c5ccccc5O)nnc4N)cc2)C3)C(C)(C)C)cc1", "note": "[Compound 219, (2S,4R)-1-((S)-2-(3-(5-(4-(2-((3-amino-6-(2-hydroxyphenyl)pyridazin-4-yl)oxy)ethyl)benzoyl)-3,4,5,6-tetrahydropyrrolo[3,4-c]pyrrol-2(1H)-yl)propanamido)-3,3-dimethylbutanoyl)-4-hydroxy-N-(4-(4-methylthiazol-5-yl)benzyl)pyrrolidine-2-carboxamide]", "values": [{"measurement": "BRM HiBit Degradation Maximum (%)", "setting": "HiBiT-BRM", "result": "B (“B” indicates maximum degradation ≥50%)"}, {"measurement": "DC50", "setting": "HiBiT-BRM", "result": "> 1000", "unit": "nM"}, {"measurement": "DC50", "setting": "HiBit-BRG1", "result": "> 1000", "unit": "nM"}, {"measurement": "Dmax", "setting": "HiBit-BRG1", "result": "< 50", "unit": "%"}]}]}
